Experimental data taken from PMC9313812, “The Pseudo‐Natural Product Rhonin Targets RHOGDI” (Angewandte Chemie (International Ed. in English), 2022).

Tests used:
NIH/3T3 cells = assay: Smoothened trafficking (ciliary localization of SMO); format: cell-based; conditions: purmorphamine stimulation
Experimental: in fresh medium containing 0.5 % FBS and 5 nM BODIPY-cyclopamine for 4 h. Afterwards, cell nuclei were stained with 1 µg/ml DAPI for 10 min, samples were washed three times with PBS and subsequently mounted on glass slides using Aqua Polymount (Polysciences Inc).
Images were acquired on an Axiovert Observer Z1 microscope (Carl Zeiss, Germany) using a Plan-Apochromat 63x/1.40 Oil DIC M27 objective.
Additionally, SMO binding was confirmed by flow cytometry. HEK293T cells were seeded (3×10^5 per well) in 6-well plate and transfected with BFP-SMO-expressing plasmid using FuGENE HD transfection reagent according to the manufacturer’s instructions. After 48 h of incubation the medium was replaced by DMEM containing 0.5% FBS, 5 nM BODIPY-cyclopamine and various concentrations of the test compounds or DMSO as a control. […]
projections, after previous background subtraction. For quantification, cilia were identified and […]
Smoothened antibody were measured within these areas. […]
significances were assessed using an unpaired t-test (confidence interval of 95%) with the […]
replicates were performed and for each replicate at least 100 cilia per condition were analyzed.
Reverse transcription- quantitative PCR (RT-qPCR) […]
DNase I digestion step. The concentration of purified RNA was determined by means of the […]

PDEδ = biological target: T1, PDEδ (Homo sapiens, UniProt O43924); assay: Competition-based fluorescence polarization with fluorescein-labelled atorvastatin; format: binding; conditions: selectivity test
T1 construct: GST (N); made in house; host or cells: E. coli Rosetta 2
Experimental: RHOGDI1 displaced liposome -bound RAC1 from the surface of L1 chip with a koff of 0.016 […]
bound RAC1. Calculated rate constants by mono-exponential fitting of RU decays were 0.02 and 0.032 s-1 for RHOGDI1-mediated RAC1 displacement from the liposomes in the presence of 7a and 7d, respectively. (d) Competition-based fluorescence polarization experiments were performed by titration of 7a against 10 nM fluorescein-labelled atorvastatin and GST-PDEδ.
(e) Fluorescence polarization experiment using 10 nM probe 10 and titration of PDEδ.
(1 picture or pasted object on this page, not shown here)
Label-free quantification (LFQ) intensities were logarithmized (log2) and proteins, which were not three times quantified in at least one of the groups, were filtered off. […]
Fluorescence polarization
The binding of probe 10 to RHOGDI1-3 was confirmed by fluorescence polarization experiments. […] The change in fluorescence polarization was monitored at an excitation / emission wavelengths of 535 nm and 593 nm, respectively. […]
To determine the effect of 7a on the binding of RHOGDI1 to non-prenylated RAC1-GDP, fluorescence polarization measurements were performed by titrating 1 µM TAMRA-GDP-bound RAC1 with increasing concentrations of RHOGDI1 in the presence and absence of 50 µM 7a in buffer containing 30 mM Tris-HCl, pH 7.5, 150 mM NaCl, 5 mM MgCl2, 1% DMSO. […]

Row | Compound | Localization of SMO to cilia (in words) (NIH/3T3 cells) | Competition with fluorescein-labelled atorvastatin for binding to PDEδ (in words) (PDEδ)
1 | COC(=O)C1(C(CC(=O)c2cccnc2)c2ccccc2)N=C(c2ccc(Br)cc2)C2C(=O)N(C)C(=O)C21 (stereo not drawn) [7l] | SMO was localized to the cilia | –
2 | COC(=O)C1(C(CC(=O)c2ccccc2)c2ccccc2)N=C(c2ccc(Br)cc2)C2C(=O)N(C)C(=O)C21 (stereo not drawn) [7a] | did not affect the localization of SMO to cilia | does not compete
